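Interpolation was linear, between the two tested concentrations surrounding the appropriate level; five concentrations were tested over 48 hours in 96-well plates. GI50: concentration for 50% inhibition of growth.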 Activity calls are given as the source filed them. Rule as the data show it: active = GI50 up to about 1.1 µM and inactive = higher.
Tests used:
Assay in all cases: NCI tumour cell line growth inhibition, 48 h
[1] = test system: DMS-114
[2] = test system: DMS-273
[3] = test system: M19-MEL
[4] = test system: SNB-78
[5] = test system: BT-549
[6] = test system: DLD-1
[7] = test system: HOP-18
[8] = test system: LXFL 529

CNc1ccc([N+](=O)[O-])c2c(NCCCN(C)C)ccnc12
GI50 [1]: > 100 µM (inactive) | GI50 [2]: > 100 µM (inactive) | GI50 [3]: > 100 µM (inactive) | GI50 [4]: 7.8 µM (inactive)

O=c1oc2ccc3ccccc3c2cc1-c1nc2ccccc2s1
GI50 [5]: > 100 µM (inactive)

Cc1cc2sc(C)[n+](CCCOS(=O)(=O)[O-])c2cc1C
GI50 [5]: > 100 µM (inactive)

Cc1[nH]c2ccccc2c1-c1cc(-c2cc(-c3c(C)[nH]c4ccccc34)nc(N)n2)nc(N)n1
GI50 [5]: > 100 µM (inactive)

O=C(/C=C(\O)C(=O)O)/C=C(\O)c1ccccc1
GI50 [6]: > 4.65 µM (inactive) | GI50 [2]: > 4.65 µM (inactive) | GI50 [7]: 1 µM (active) | GI50 [8]: > 4.65 µM (inactive) | GI50 [3]: > 4.65 µM (inactive) | GI50 [4]: > 100 µM (inactive)

CC[C@]1(Cc2ccc(OC)c(OC)c2)C=[N+]([O-])O[C@H](OC2CCCC2(c2ccccc2)c2ccccc2)[C@@H]1OC(=O)C(C)(C)C (stereo partly drawn)
GI50 [5]: 4.38 µM (inactive)

Cc1nnc2n(c1=O)CCCN2C
GI50 [5]: > 100 µM (inactive)

CC[n+]1c(/C=C/c2ccc(N(CCCl)CCCl)cc2)ccc2cc(NC(=O)/C=C/c3ccccc3)ccc21
GI50 [5]: 0.628 µM (active) | GI50 [6]: 0.628 µM (active) | GI50 [1]: 0.52 µM (active) | GI50 [7]: 2.62 µM (inactive) | GI50 [8]: 0.357 µM (active) | GI50 [3]: 0.439 µM (active) | GI50 [4]: 1.51 µM (inactive)

c1cc2c3ccsc3c3sccc3c2s1
GI50 [5]: > 100 µM (inactive)

O=C(O)C1CCCN1Cc1cc2ccccc2c2ccccc12 (stereo not drawn)
GI50 [5]: > 100 µM (inactive)

Nc1nc(N)c2nc(CN(C=O)c3ccc(C(=O)O)cc3)cnc2n1
GI50 [5]: > 26.6 µM (inactive)

Oc1ccc2c(c1)OCC1c3ccccc3OC21 (stereo not drawn)
GI50 [5]: 55.2 µM (inactive)

COc1ccc(C2SC(=N)Nc3c2c(C)nn3C(=O)c2ccccc2O)cc1OC (stereo not drawn)
GI50 [5]: 8.91 µM (inactive)

CC(C)OP(=O)(OC(C)C)/C(N)=N/Nc1ccc([N+](=O)[O-])cc1
GI50 [6]: > 100 µM (inactive) | GI50 [1]: 57.8 µM (inactive) | GI50 [2]: > 100 µM (inactive) | GI50 [8]: 66.2 µM (inactive) | GI50 [3]: > 100 µM (inactive) | GI50 [4]: 50.7 µM (inactive)

C#CCNC(CCCNC(=N)N)C(=O)O (stereo not drawn)
GI50 [5]: > 100 µM (inactive)

COc1c2cc(C(C)(C)C)cc1CSCc1cc(C(C)(C)C)cc(c1OC)CCCCC2
GI50 [5]: 21.6 µM (inactive)

CC(=O)O[C@H]1C(=O)[C@@]2(C)[C@H]([C@H](OC(=O)c3ccccc3)[C@]3(O)C[C@H](OC(=O)[C@H](O)[C@@H](NC(=O)C(C)(C)C)c4ccccc4)C(C)=C1C3(C)C)[C@]1(OC(C)=O)CO[C@@H]1C[C@@H]2O
GI50 [5]: 0.342 µM (active)

CC(C)c1cccc(C(C)C)c1NC(=O)/C(CC(=O)CC(c1ccccc1)c1c(O)c2ccccc2oc1=O)=N/O (stereo not drawn)
GI50 [5]: > 100 µM (inactive)

NC(=O)C#CC#CC#CCO
GI50 [6]: 0.807 µM (active) | GI50 [1]: 2.05 µM (inactive) | GI50 [2]: 1.98 µM (inactive) | GI50 [7]: 1.82 µM (inactive) | GI50 [8]: 1.14 µM (inactive) | GI50 [3]: 1.81 µM (inactive) | GI50 [4]: 2.86 µM (inactive)

CC1(C)[C@@H]2C[C@H]1[C@@H](Cc1cccc(C[C@H]3c4cc(-c5ccccn5)ncc4[C@H]4C[C@@H]3C4(C)C)c1)c1cc(-c3ccccn3)ncc12
GI50 [5]: > 100 µM (inactive)

O=C(NCCNCCNCCNC(=O)c1cc(-c2ccccc2)nc2ccccc12)c1cc(-c2ccccc2)nc2ccccc12
GI50 [5]: 7.52 µM (inactive)

O=C(NCc1cccc2ccccc12)N/N=C\c1ccc(Cl)cc1
GI50 [5]: > 100 µM (inactive)

CCOC(=O)CCCNC(=O)CCCCC(=O)N(C)C
GI50 [5]: > 100 µM (inactive)

Cc1ccc(S(=O)(=O)NC(=O)NNc2ccc(F)cc2)cc1
GI50 [5]: > 31.6 µM (inactive)

O=C1OS2(OC(=O)c3cccc4cccc2c34)c2ccccc21 (stereo not drawn)
GI50 [5]: > 100 µM (inactive)

[N-]=[N+]=NC1C2CC3C4CC5CC3[C@H](C2)C(C5)C41 (stereo partly drawn)
GI50 [6]: > 100 µM (inactive) | GI50 [1]: > 100 µM (inactive) | GI50 [2]: > 100 µM (inactive) | GI50 [7]: 17.1 µM (inactive) | GI50 [8]: > 100 µM (inactive) | GI50 [3]: > 100 µM (inactive)

C1CSCCSCCS1
GI50 [5]: > 100 µM (inactive)

c1cncc(CSc2ncnc3[nH]cnc23)c1
GI50 [5]: > 100 µM (inactive)

From ChEMBL document CHEMBL1201862, “PubChem BioAssay data set” (2004)
